Data reported in patent publication US20190062305A1, “PYRIDYL OR PYRAZINYL COMPOUNDS CARRYING A METHYL-BOUND ALPHA-AMINO ACID AMIDE GROUP” (ABBVIE DEUTSCHLAND GMBH & CO. KG, priority 2015, published 2019).
Where a name gives a salt, the structure may show the parent alone. Read-outs that look alike come from different tables or passages of the source.

Assays:
[1] = Metabolic stability in human liver microsomes, unbound intrinsic clearance (Cl int/fu mic); assay type: in vitro ADME; settings: 0.5 μM compound, NADPH; for CLint scaled at 0.5 μM: pH 7.4, human liver microsomes 0.25 mg/mL, read-out: Cl int, mic unb. (h) [l/h/kg] (unbound intrinsic clearance, human)
Protocol: Samples of the tested compounds (0.5 μM) were preincubated together with human liver microsomes (0.25 mg of microsomal protein/mL) in 0.05 M potassium phosphate buffer of pH 7.4 in microtiter plates at 37° C. for 5 minutes. The reaction was started by adding NADPH (1.0 mM). After 0, 5, 10, 15, 20 and 30 minutes, an aliquot was removed, the reaction was cooled and stopped by adding twice the amount of quench solution consisting of acetonitrile/methanol 1:1, and containing 0.2 μM carbutamide as internal standard. The samples were frozen until analyzed. The remaining concentration of undegraded test substance was determined by liquid chromatography-tandem mass spectrometry (LC-MS/MS). The half-life (t1/2) was determined from the gradient of the ratio of the signal of (test substance/internal standard)/unit time plot, allowing the calculation of the half-life of the test substance, assuming first order kinetics, from the decrease in the concentration of the compound with time. The microsomal clearance ([…]) was calculated as follows: […]=((ln(2)/t 1⁄2)/Microsomal Protein Concentration (mg/ml))*1000, leading to the unit of uL/min/mg. The scaled clearance (mClin_scaled) was calculated as […]_scaled=m CLint*(Microsomal Yield (mg/kg BW))/1000000*60, leading to the units L/h/kg. The Microsomal Yield is defined by the specifics of the used microsomes. Calculations were modified from references: Di, The Society for Biomolecular Screening, 2003, 453-462; Obach, D M D, 1999 vol 27. N 11, 1350-1359. A suspension of 0.25 mg/ml microsomal protein spiked with 0.5 μM of test compound was pipetted on one side of a HTDialysis device (HTDialysis LLC, 37 Ledgewood Drive, Gales Fery CT 06335) separated by a membrane with a MWcut off 12-14 K. 50 mM K-Phosphate buffer (pH 7.4) was added on the other side of the well. After incubation at 37° C. for 4 h while shaking at 150 rpm, aliquots of both sides were taken, quenched with MeOH/ACN 1:1 and 0.2 μM of internal standard and frozen until analysis by LCMSMS Cl int unbound=Cl int/fu mic

[2] = biological target: T1, 5-HT2C receptor (Homo sapiens, UniProt P28335); test: Human 5-HT2C functional assay (beta-arrestin2 recruitment, U2OS_HTR2C_β-Arrestin cells); assay type: cell-based; settings: for EC50: beta-arrestin2 recruitment, U2OS_HTR2C_β-Arrestin cells, 1.5 h incubation, read-out: EC50 5-HT2C (potency in functional assay)
T1 construct: host or cells: U2OS
In short: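 U2OS cells expressing HTR2C with β-galactosidase complementation, switched to 1% serum medium 24 h post-plating, were treated next day with compound for 1.5 h; chemiluminescence read. Response expressed as % of 10 µM 5-HT or maximal 5-HT effect; EC50 from 4-parameter variable-slope fit.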

[3] = relative efficacy vs response to 10 μM 5-HT or maximal 5-HT effect (100%)

T1 sequence (P28335 33-458): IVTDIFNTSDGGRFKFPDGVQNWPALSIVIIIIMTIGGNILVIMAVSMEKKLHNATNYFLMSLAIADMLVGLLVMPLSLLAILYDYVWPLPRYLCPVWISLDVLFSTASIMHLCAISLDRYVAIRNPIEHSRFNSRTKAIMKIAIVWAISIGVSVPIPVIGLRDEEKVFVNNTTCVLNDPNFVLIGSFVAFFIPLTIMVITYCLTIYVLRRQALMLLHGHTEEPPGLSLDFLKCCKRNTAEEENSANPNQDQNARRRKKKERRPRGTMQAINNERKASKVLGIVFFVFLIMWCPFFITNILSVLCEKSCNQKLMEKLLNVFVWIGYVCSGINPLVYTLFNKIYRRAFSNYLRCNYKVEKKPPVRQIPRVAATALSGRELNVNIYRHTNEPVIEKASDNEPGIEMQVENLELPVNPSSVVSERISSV
T1 sequence (P32121 whole entry partner): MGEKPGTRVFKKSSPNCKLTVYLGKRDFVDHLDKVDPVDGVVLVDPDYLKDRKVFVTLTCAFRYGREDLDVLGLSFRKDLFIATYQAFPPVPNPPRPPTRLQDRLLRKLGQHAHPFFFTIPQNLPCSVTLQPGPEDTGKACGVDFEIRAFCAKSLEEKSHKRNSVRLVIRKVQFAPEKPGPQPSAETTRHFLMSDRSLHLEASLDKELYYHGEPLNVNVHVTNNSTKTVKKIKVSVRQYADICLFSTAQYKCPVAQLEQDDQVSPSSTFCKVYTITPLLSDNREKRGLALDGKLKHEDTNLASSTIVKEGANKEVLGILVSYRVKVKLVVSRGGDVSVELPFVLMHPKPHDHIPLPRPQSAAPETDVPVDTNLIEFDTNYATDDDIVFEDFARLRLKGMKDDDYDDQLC

Row | SMILES | CLint scaled at 0.5 μM ([1]; human, liver microsomes) [L/h/kg] | EC50 [2] [nM] | Emax [2, 3] [%] | Cl int, mic unb. (h) [l/h/kg] (unbound intrinsic clearance, human) ([1]; human liver microsomes 0.25 mg/mL) | % efficacy [2, 3] | CLint scaled at 0.5 μM [1] [L/h/kg]
1 | COc1nc(OC2CCC(F)(F)CC2)cnc1CNC(=O)[C@@H]1CCCN1 [Example 108, (2S)—N-[[5-(4,4-Difluorocyclohexoxy)-3-methoxy-pyrazin-2-yl]methyl]pyrrolidine-2-carboxamide; 2,2,2-trifluoroacetic Acid] | < 5 | 20 to 200 | > 70 |  |  | 
2 | COc1nc(OCC2CC3C(C2)C3(F)F)c(F)cc1CNC(=O)[C@@H]1CCCN1 (stereo partly drawn) [Example 56, (2S)—N-[[6-[(6,6-Difluoro-3-bicyclo[3.1.0]hexanyl)methoxy]-5-fluoro-2-methoxy-3-pyridyl]methyl]pyrrolidine-2-carboxamide; 2,2,2-trifluoroacetic Acid] | 5 to 50 | < 20 | > 70 |  |  | 
3 | COc1nc(Nc2ccc(F)cc2)c(F)cc1CNC(=O)[C@@H]1CCCN1 [Example 178, (2S)—N-[[5-Fluoro-6-(4-fluoroanilino)-2-methoxy-3-pyridyl]methyl]pyrrolidine-2-carboxamide; 2,2,2-trifluoroacetic Acid] | < 5 | 200 to 1000 |  |  |  | 
4 | COc1nc(O[C@@H]2CCC(F)(F)C2)c(F)cc1CNC(=O)[C@@H]1CCCN1C [Example 27, (2S)—N-[[6-[(1R)-3,3-Difluorocyclopentoxy]-5-fluoro-2-methoxy-3-pyridyl]methyl]-1-methyl-pyrrolidine-2-carboxamide Hydrochloride] | < 5 | < 20 | > 70 |  |  | 
5 | COCCCc1nc(OC)c(CNC(=O)[C@@H]2CCCN2)cc1F [Example 168, (2S)—N-[[5-Fluoro-2-methoxy-6-(3-methoxypropyl)-3-pyridyl]methyl]pyrrolidine-2-carboxamide] | < 5 | 200 to 1000 | > 70 |  |  | 
6 | COc1nc(N[C@H]2CC[C@H](C(F)(F)F)CC2)c(F)cc1CNC(=O)[C@@H]1CCCN1.Cl [Example 144, (2S)—N-[[5-Fluoro-2-methoxy-6-[[trans-4-(trifluoromethyl)cyclohexyl]amino]-3-pyridyl]methyl]pyrrolidine-2-carboxamide Hydrochloride] |  | 20 to 200 |  | ++ (from 5 to <50 l/h/kg) | +++ (>70%) | 
7 | COc1nc(O[C@@H]2CCCC[C@H]2F)c(F)cc1CNC(=O)[C@@H]1CCCN1 [Example 55, (2S)—N-[[5-Fluoro-6-[(1R,2R)-2-fluorocyclohexoxy]-2-methoxy-3-pyridyl]methyl]pyrrolidine-2-carboxamide; 2,2,2-trifluoroacetic Acid] | < 5 | < 20 | > 70 |  |  | 
8 | COc1nc(OC2CCCC(F)(F)C2)c(F)cc1CNC(=O)[C@@H]1CCCN1 (stereo partly drawn) [Example 58, (2S)—N-[[6-(3,3-Difluorocyclohexoxy)-5-fluoro-2-methoxy-3-pyridyl]methyl]-pyrrolidine-2-carboxamide; 2,2,2-trifluoroacetic Acid] | < 5 | < 20 | > 70 |  |  | 
9 | COc1nc(N2CC(C)OC(C)C2)c(F)cc1CNC(=O)[C@@H]1CCCN1 (stereo partly drawn) [Example 174, (2S)—N-[[6-(2,6-Dimethylmorpholin-4-yl)-5-fluoro-2-methoxy-3-pyridyl]methyl]-pyrrolidine-2-carboxamide; 2,2,2-trifluoroacetic Acid] | < 5 | 200 to 1000 | 30 to 50 |  |  | 
10 | COc1nc(OC2CCC(OC)CC2)c(F)cc1CNC(=O)[C@@H]1CCCN1 (stereo partly drawn) [Example 12, (2S)—N-[[5-Fluoro-2-methoxy-6-(4-methoxycyclohexoxy)-3-pyridyl]methyl]-pyrrolidine-2-carboxamide; Fumaric Acid] | < 5 | 20 to 200 | > 70 |  |  | 
11 | COc1nc(OCC2CC(F)(F)C2)c(F)cc1CN(C)C(=O)[C@@H]1CCCN1 [Example 115, (2S)—N-[[6-[(3,3-Difluorocyclobutyl)methoxy]-5-fluoro-2-methoxy-3-pyridyl]-methyl]-N-methyl-pyrrolidine-2-carboxamide Hydrochloride] | < 5 | < 20 | 50 to 70 |  |  | 
12 | COc1nc(OCC2CCC(F)(F)C2)c(F)cc1CNC(=O)[C@@H]1CCCN1 (stereo partly drawn) [Example 6, (2S)—N-[[6-[(3,3-Difluorocyclopentyl)methoxy]-5-fluoro-2-methoxy-3-pyridyl]-methyl]pyrrolidine-2-carboxamide; Fumaric Acid] | < 5 | < 20 | > 70 |  |  | 
13 | COc1nc(OC2CCC(C(F)(F)F)CC2)c(F)cc1CNC(=O)[C@@H]1CCN1 (stereo partly drawn) [Example 36, (2S)—N-[[5-Fluoro-2-methoxy-6-[4-(trifluoromethyl)cyclohexoxy]-3-pyridyl]-methyl]azetidine-2-carboxamide; Succinic Acid] | 5 to 50 | < 20 | 50 to 70 |  |  | 
14 | COc1nc(O[C@H]2CCC(F)(F)C2)c(F)cc1CNC(=O)[C@@H]1CCCN1C [Example 26, (2S)—N-[[6-[(1S)-3,3-Difluorocyclopentoxy]-5-fluoro-2-methoxy-3-pyridyl]methyl]-1-methyl-pyrrolidine-2-carboxamide Hydrochloride] | < 5 | < 20 | > 70 |  |  | 
15 | COc1nc(C(F)(F)Cc2ccccc2)c(F)cc1CN(C)C(=O)[C@@H]1CCCN1 [Example 191, (2S)—N-[[6-(1,1-Difluoro-2-phenyl-ethyl)-5-fluoro-2-methoxy-3-pyridyl]methyl]-N-methyl-pyrrolidine-2-carboxamide Hydrochloride] | 5 to 50 | 200 to 1000 | 30 to 50 |  |  | 
16 | COc1nc(OCC(F)(F)C(F)(F)C(F)(F)F)c(F)cc1CN(C)C(=O)[C@@H]1CCCN1 [Example 117, (2S)—N-[[5-Fluoro-6-(2,2,3,3,4,4,4-heptafluorobutoxy)-2-methoxy-3-pyridyl]-methyl]-N-methyl-pyrrolidine-2-carboxamide Hydrochloride] |  | < 20 | 50 to 70 |  |  | 5 to 50
17 | COc1nc(O[C@H]2CC[C@@H](F)CC2)c(F)cc1CNC(=O)[C@@H]1CCCN1 [Example 30, (2S)—N-[[5-Fluoro-6-(cis-4-fluorocyclohexoxy)-2-methoxy-3-pyridyl]methyl]-pyrrolidine-2-carboxamide; Fumaric Acid] | < 5 | < 20 | > 70 |  |  | 
18 | COc1nc(N2CCC3C(C2)C3(F)F)c(F)cc1CNC(=O)[C@@H]1CCCN1 (stereo partly drawn) [Example 184, (2S)—N-[[6-(7,7-Difluoro-4-azabicyclo[4.1.0]heptan-4-yl)-5-fluoro-2-methoxy-3-pyridyl]methyl]pyrrolidine-2-carboxamide; 2,2,2-trifluoroacetic Acid] | 5 to 50 | 20 to 200 | > 70 |  |  | 
19 | COc1nc(OC2CCC(F)(F)CC2)c(F)cc1CNC(=O)[C@@H]1C[C@@H](F)CN1 [Example 34, (2S,4R)—N-[[6-(4,4-Difluorocyclohexoxy)-5-fluoro-2-methoxy-3-pyridyl]methyl]-4-fluoro-pyrrolidine-2-carboxamide; Fumaric Acid] | < 5 | < 20 | > 70 |  |  | 
